Laboratory results reported in US20100184758A1, “BETA CARBOLINE DERIVATIVES AS ANTIDIABETIC COMPOUNDS” (priority 2007, published 2010).

What was measured:
Format in all cases: in vivo, mouse
[1] = tested on: C57BL/6N mice; experiment: Glucose tolerance test in mice; conditions: wild type mice containing intact, functional SSTR3
Method: (§1) Male C57BL/6N mice (7-12 weeks of age) are housed 10 per cage and given access to normal diet rodent chow and water ad libitum. Mice are randomly assigned to treatment groups and fasted 4 to 6 h. Baseline blood glucose concentrations are determined by glucometer from tail nick blood. Animals are then treated orally with vehicle (0.25% methylcellulose) or test compound. Blood glucose concentration is measured at a set time point after treatment (t=0 min) and mice are then challenged with dextrose intraperitoneally- (2-3 g/kg) or orally (3-5 g/kg). One group of vehicle-treated mice is challenged with saline as a negative control. Blood glucose levels are determined from tail bleeds taken at 20, 40, 60 minutes after dextrose challenge. […] Percent inhibition values for each treatment are generated from the AUC data normalized to the saline-challenged controls. A similar assay may be performed in rats.

[2] = tested on: SSTR3 knock out mice; experiment: Glucose tolerance test in SSTR3 gene knockout mice; conditions: oral dose in the range of 1 to 30 mg/kg po
Method: as §1
In order to assess the selectivity of blockade of SSTR3, compounds were evaluated in the oral glucose tolerance test (oGTT) described above in mice lacking the gene for a functional SSTR3.

[3] = tested on: C57BL/6N mice; experiment: Oral glucose tolerance test in mice, SSTR3 antagonist combined with DPP-4 inhibitor; conditions: suboptimal doses 0.001 to 0.1 mg/kg po with low doses of a DPP-4 inhibitor such as sitagliptin and des-fluoro-sitagliptin
Method: Compounds of the present invention were combined with dipeptidyl peptidase-IV (DPP-4) inhibitors in oral glucose tolerance test (oGTT) described above. Male C57BL/6N mice (7-12 weeks of age) were housed 10 per cage and given access to normal rodent chow and water ad libitum. Mice were randomly assigned to treatment groups and fasted 4 to 6 h. Baseline blood glucose concentrations were determined by glucometer from tail nick blood. […] Blood glucose concentration was measured at a set time point after treatment (t=0 min) and mice were then challenged with dextrose intraperitoneally (2-3 g/kg) or orally (3-5 g/kg). One group of vehicle-treated mice was challenged with saline as a negative control. Blood glucose levels were determined from tail bleeds taken at 20, 40, 60 min after dextrose challenge. […] Percent inhibition values for each treatment were generated from the AUC data normalized to the saline-challenged controls.

| Structure (SMILES) | inhibition of glucose excursion in oGTT [1] | inhibition of glucose excursion in oGTT [2] | activity in oGTT in combination with a DPP-4 inhibitor versus alone [3] |
| --- | --- | --- | --- |
| Cc1nc(C2N[C@@H](c3nc(-c4ccc(F)cc4)c[nH]3)Cc3c2[nH]c2ccccc32)no1 (stereo partly drawn) [Example 17, (3R)-3-[4-(4-Fluorophenyl)-1H-imidazol-2-yl]-1-(5-methyl-1,2,4-oxadiazol-3-yl)-2,3,4,9-tetrahydro-1H-β-carboline] | inhibit glucose excursion | failed to significantly inhibit glucose excursion | – |
| CCOCC1(c2cnn(C)c2)N[C@@H](c2nc(-c3ccc(F)cc3)c[nH]2)Cc2c1[nH]c1ccccc21 (stereo partly drawn) [Example 20, (3R)-[4-(4-Fluorophenyl)-1H-imidazol-2-yl]-1-(ethoxymethyl)-1-(1-methyl-1H-pyrazol-4-yl)-2,3,4,9-tetrahydro-1H-β-carboline] | inhibit glucose excursion | failed to significantly inhibit glucose excursion | more active in combination with low doses of a DPP-4 inhibitor |
| Cc1nc(C2(c3cnn(C)c3)N[C@@H](c3nc(-c4ccc(F)cc4)c[nH]3)Cc3c2[nH]c2ccccc32)no1 (stereo partly drawn) [Example 21, (3R)-[4-(4-Fluorophenyl)-1H-imidazol-2-yl]-1-(5-methyl-1,2,4-oxadiazol-3-yl)-1-(1-methyl-1H-pyrazol-4-yl)-2,3,4,9-tetrahydro-1H-β-carboline] | inhibit glucose excursion | – | – |
